Source: patent publication US20230382889A1 (Volastra Therapeutics, Inc., priority 2022, published 2023)

Molecular target: hKIF18A (1-374) (Homo sapiens (Human), UniProt Q8NI77)
Assay: Inhibition of KIF18A microtubule-dependent ATPase activity (ADP-Glo)
Type: biochemical
Details: 4 nM hKIF18A (1-374)
Protocol: Test compounds were plated in a 3× dilution scheme in a 384-well plate. Assay buffer: 80 mM PIPES (pH 6.9), 1 mM MgCl2, 75 mM KCl, 1 mM EGTA, 1 mM DTT, 0.01% BSA, 0.005% Tween-20, 1 μM Taxol in H2O. […] After incubation at room temperature for 30 min, 2.5 μL of microtubule mix was added [0.2 mg/mL pre-formed microtubules, 2.0 mM ATP in assay buffer], the plate was centrifuged for 30 s and then incubated at 28° C. for 60 min. 5 μL of Promega® ADP-Glo Max R1 was added, the plate was centrifuged for 30 s, and the mixture incubated for 4 h at room temperature. 10 μL of Promega® ADP-Glo Max R2 was added, the plate centrifuged for 30 s, and incubated for 60 min at room temperature. Luminescence was measured with an Envision plate reader, and % Inhibition was calculated for each well as: ([max−min]−[test−min])/[max−min]. IC50 values were calculated from concentration vs. % Inhibition data via a four-parameter variable slope model.

Chain of hKIF18A (1-374) (Q8NI77 1-374): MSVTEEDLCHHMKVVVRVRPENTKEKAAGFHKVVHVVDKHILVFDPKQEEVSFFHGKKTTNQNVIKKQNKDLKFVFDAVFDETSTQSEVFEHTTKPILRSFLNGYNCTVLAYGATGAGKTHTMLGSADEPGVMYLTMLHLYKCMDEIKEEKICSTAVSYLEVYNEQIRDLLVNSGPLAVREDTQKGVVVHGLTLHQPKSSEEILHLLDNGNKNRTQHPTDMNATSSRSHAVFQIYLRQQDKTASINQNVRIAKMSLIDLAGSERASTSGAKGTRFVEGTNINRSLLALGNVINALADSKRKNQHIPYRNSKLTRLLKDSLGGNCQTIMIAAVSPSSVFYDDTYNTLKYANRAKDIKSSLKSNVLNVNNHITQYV

Row | Compound | IC50 [µM]
1 | Cc1cc(-c2cn(-c3ccc(NS(=O)(=O)CCO)cc3N3CCC4(CC3)CC4)nn2)nc(N2CCC(F)(F)CC2)c1 [Compound 48, N-(4-(4-(6-(4,4-difluoropiperidin-1-yl)-4-methylpyridin-2-yl)-1H-1,2,3-triazol-1-yl)-3-(6-azaspiro[2.5]octan-6-yl)phenyl)-2-hydroxyethane-1-sulfonamide] | 0.017
2 | CS(=O)(=O)Nc1ccc(-n2cc(-c3csc(N4CCC(F)(F)CC4)n3)nn2)c(N2CCC3(CC2)CC3)c1 [Compound 50, N-(4-(4-(2-(4,4-difluoropiperidin-1-yl)thiazol-4-yl)-1H-1,2,3-triazol-1-yl)-3-(6-azaspiro[2.5]octan-6-yl)phenyl)methanesulfonamide] | 0.0072
3 | O=S(=O)(CCO)Nc1ccc(-n2cc(-c3ccc(C(O)C4CCCC4)o3)nn2)c(N2CCC3(CC2)CC3)c1 (centres unmarked) [Compound 51, N-(4-(4-(5-(cyclopentyl(hydroxy)methyl)furan-2-yl)-1H-1,2,3-triazol-1-yl)-3-(6-azaspiro[2.5]octan-6-yl)phenyl)-2-hydroxyethane-1-sulfonamide] | 0.0028
4 | CS(=O)(=O)Nc1ccc(-n2cc(-c3cccc(N4CCC(F)(F)CC4)n3)nn2)c(N2CCCCCC2)c1 [Compound 52, N-(3-(azepan-1-yl)-4-(4-(6-(4,4-difluoropiperidin-1-yl)pyridin-2-yl)-1H-1,2,3-triazol-1-yl)phenyl)methanesulfonamide] | 0.018
5 | CS(=O)(=O)Nc1ccc(-n2cc(-c3cccc(N4CCC(F)(F)CC4)n3)nn2)c(N2CC3CC(C3)C2)c1 [Compound 53, N-(3-(3-azabicyclo[3.1.1]heptan-3-yl)-4-(4-(6-(4,4-difluoropiperidin-1-yl)pyridin-2-yl)-1H-1,2,3-triazol-1-yl)phenyl)methanesulfonamide] | 0.043
6 | CS(=O)(=O)Nc1ccc(-n2cc(-c3cccc(N4CCOCC4)n3)nn2)c(N2CCC3(CC2)CC3)c1 [Compound 54, N-(4-(4-(6-morpholinopyridin-2-yl)-1H-1,2,3-triazol-1-yl)-3-(6-azaspiro[2.5]octan-6-yl)phenyl)methanesulfonamide] | 0.0083
7 | CS(=O)(=O)Nc1ccc(-n2cc(-c3cccc(N4CC5CC(C4)O5)n3)nn2)c(N2CCC3(CC2)CC3)c1 [Compound 55, N-(4-(4-(6-(6-oxa-3-azabicyclo[3.1.1]heptan-3-yl)pyridin-2-yl)-1H-1,2,3-triazol-1-yl)-3-(6-azaspiro[2.5]octan-6-yl)phenyl)methanesulfonamide] | 0.029
8 | CC1CN(c2cccc(-c3cn(-c4ccc(NS(C)(=O)=O)cc4N4CCC5(CC4)CC5)nn3)n2)CCO1 (centres unmarked) [Compound 56, N-(4-(4-(6-(2-methylmorpholino)pyridin-2-yl)-1H-1,2,3-triazol-1-yl)-3-(6-azaspiro[2.5]octan-6-yl)phenyl)methanesulfonamide] | 0.013
9 | CS(=O)(=O)Nc1ccc(-n2cc(-c3cccc(N4CC5(CCC5)C4)n3)nn2)c(N2CCC3(CC2)CC3)c1 [Compound 57, N-(4-(4-(6-(2-azaspiro[3.3]heptan-2-yl)pyridin-2-yl)-1H-1,2,3-triazol-1-yl)-3-(6-azaspiro[2.5]octan-6-yl)phenyl)methanesulfonamide] | 0.037
10 | CS(=O)(=O)Nc1ccc(-n2cc(-c3cccc(N4CC5(CCO5)C4)n3)nn2)c(N2CCC3(CC2)CC3)c1 [Compound 58, N-(4-(4-(6-(1-oxa-6-azaspiro[3.3]heptan-6-yl)pyridin-2-yl)-1H-1,2,3-triazol-1-yl)-3-(6-azaspiro[2.5]octan-6-yl)phenyl)methanesulfonamide] | 0.041
11 | CS(=O)(=O)Nc1cc(N2CCC3(CC2)CC3)c(-n2cc(-c3cccc(N4CCC(F)(F)CC4)n3)nn2)cn1 [Compound 59, N-(5-(4-(6-(4,4-difluoropiperidin-1-yl)pyridin-2-yl)-1H-1,2,3-triazol-1-yl)-4-(6-azaspiro[2.5]octan-6-yl)pyridin-2-yl)methanesulfonamide] | 0.0016
12 | CS(=O)(=O)Nc1ccc(-n2cc(-c3cccc(N4CC(F)(F)C4)n3)nn2)c(N2CCC3(CC2)CC3)c1 [Compound 60, N-(4-(4-(6-(3,3-difluoroazetidin-1-yl)pyridin-2-yl)-1H-1,2,3-triazol-1-yl)-3-(6-azaspiro[2.5]octan-6-yl)phenyl)methanesulfonamide] | 0.0065
13 | CS(=O)(=O)Nc1ccc(-n2cc(-c3cncc(N4CCC(F)(F)CC4)n3)nn2)c(N2CCC3(CC2)CC3)c1 [Compound 63, N-(4-(4-(6-(4,4-difluoropiperidin-1-yl)pyrazin-2-yl)-1H-1,2,3-triazol-1-yl)-3-(6-azaspiro[2.5]octan-6-yl)phenyl)methanesulfonamide] | 0.0034
14 | O=S(=O)(CCO)Nc1ccc(-c2cn(-c3cccc(N4CCC(F)(F)CC4)c3)nn2)c(N2CCC3(CC2)CC3)c1 [Compound 65, N-(4-(1-(3-(4,4-difluoropiperidin-1-yl)phenyl)-1H-1,2,3-triazol-4-yl)-3-(6-azaspiro[2.5]octan-6-yl)phenyl)-2-hydroxyethane-1-sulfonamide] | 0.0086
15 | CS(=O)(=O)Nc1ccc(-n2cc(-c3nccc(N4CCC(F)(F)CC4)n3)cn2)c(N2CCC3(CC2)CC3)c1 [Compound 66, N-(4-(4-(4-(4,4-difluoropiperidin-1-yl)pyrimidin-2-yl)-1H-pyrazol-1-yl)-3-(6-azaspiro[2.5]octan-6-yl)phenyl)methanesulfonamide] | 0.014
16 | Cc1cc(-c2cn(-c3ccc(NS(=O)(=O)CCO)cc3N3CCCCC3)nn2)nc(N2CC3C(C2)C3(F)F)n1 (centres unmarked) [Compound 74, N-(4-(4-(2-(6,6-difluoro-3-azabicyclo[3.1.0]hexan-3-yl)-6-methylpyrimidin-4-yl)-1H-1,2,3-triazol-1-yl)-3-(piperidin-1-yl)phenyl)-2-hydroxyethane-1-sulfonamide] | 0.018
17 | Cc1cc(-c2cn(-c3ccc(NS(=O)(=O)CCO)cc3N3CCCCCC3)nn2)nc(N2CCC(F)(F)CC2)n1 [Compound 75, N-(3-(azepan-1-yl)-4-(4-(2-(4,4-difluoropiperidin-1-yl)-6-methylpyrimidin-4-yl)-1H-1,2,3-triazol-1-yl)phenyl)-2-hydroxyethane-1-sulfonamide] | 0.0071
18 | O=S(=O)(CCO)Nc1ccc(-n2cc(-c3ccn(C4CCC(F)(F)CC4)n3)nn2)c(N2CCCCC2)c1 [Compound 76, N-(4-(4-(1-(4,4-difluorocyclohexyl)-1H-pyrazol-3-yl)-1H-1,2,3-triazol-1-yl)-3-(piperidin-1-yl)phenyl)-2-hydroxyethane-1-sulfonamide] | 0.029
19 | O=S(=O)(CCO)Nc1ccc(-n2cc(-c3ccn(CC4CCC4)n3)nn2)c(N2CCC3(CC2)CC3)c1 [Compound 77, N-(4-(4-(1-(cyclobutylmethyl)-1H-pyrazol-3-yl)-1H-1,2,3-triazol-1-yl)-3-(6-azaspiro[2.5]octan-6-yl)phenyl)-2-hydroxyethane-1-sulfonamide] | 0.012
20 | O=S(=O)(CCO)Nc1ccc(-n2cc(-c3cc(F)cc(N4CCC(F)(F)CC4)n3)nn2)c(N2CCC3(CC2)CC3)c1 [Compound 78, N-(4-(4-(6-(4,4-difluoropiperidin-1-yl)-4-fluoropyridin-2-yl)-1H-1,2,3-triazol-1-yl)-3-(6-azaspiro[2.5]octan-6-yl)phenyl)-2-hydroxyethane-1-sulfonamide] | 0.017
21 | Cc1cc(-c2cn(-c3ccc(NS(=O)(=O)CCO)cc3N3CCC(F)(F)CC3)nn2)nc(N2CCC(F)(F)CC2)c1 [Compound 80, N-(3-(4,4-difluoropiperidin-1-yl)-4-(4-(6-(4,4-difluoropiperidin-1-yl)-4-methylpyridin-2-yl)-1H-1,2,3-triazol-1-yl)phenyl)-2-hydroxyethane-1-sulfonamide] | 0.013
22 | O=S(=O)(CCO)Nc1ccc(-n2cc(-c3csc(N4CCCC4)n3)nn2)c(N2CCC3(CC2)CC3)c1 [Compound 81, 2-hydroxy-N-(4-(4-(2-(pyrrolidin-1-yl)thiazol-4-yl)-1H-1,2,3-triazol-1-yl)-3-(6-azaspiro[2.5]octan-6-yl)phenyl)ethane-1-sulfonamide] | 0.14
23 | O=S(=O)(CCO)Nc1ccc(-n2cc(-c3ccn(C4CCC4)n3)nn2)c(N2CCC3(CC2)CC3)c1 [Compound 82, N-(4-(4-(1-cyclobutyl-1H-pyrazol-3-yl)-1H-1,2,3-triazol-1-yl)-3-(6-azaspiro[2.5]octan-6-yl)phenyl)-2-hydroxyethane-1-sulfonamide] | 0.06
24 | O=S(=O)(CCO)Nc1ccc(-n2cc(-c3ccn(C4CCCC4)n3)nn2)c(N2CCC3(CC2)CC3)c1 [Compound 83, N-(4-(4-(1-cyclopentyl-1H-pyrazol-3-yl)-1H-1,2,3-triazol-1-yl)-3-(6-azaspiro[2.5]octan-6-yl)phenyl)-2-hydroxyethane-1-sulfonamide] | 0.01
25 | O=S(=O)(CCO)Nc1ccc(-n2cc(-c3ccn(C4CCC(F)(F)CC4)n3)nn2)c(N2CCC3(CC2)CC3)c1 [Compound 84, N-(4-(4-(1-(4,4-difluorocyclohexyl)-1H-pyrazol-3-yl)-1H-1,2,3-triazol-1-yl)-3-(6-azaspiro[2.5]octan-6-yl)phenyl)-2-hydroxyethane-1-sulfonamide] | 0.0082
26 | CC(CO)S(=O)(=O)Nc1ccc(-n2cc(-c3cccc(N4CCC(F)(F)CC4)n3)nn2)c(N2CCC3(CC2)CC3)c1 (centres unmarked) [Compound 85, N-(4-(4-(6-(4,4-difluoropiperidin-1-yl)pyridin-2-yl)-1H-1,2,3-triazol-1-yl)-3-(6-azaspiro[2.5]octan-6-yl)phenyl)-1-hydroxypropane-2-sulfonamide] | 0.011
